Molecular target: T1, human V1a receptor (Homo sapiens, UniProt P37288)
T1 construct: expressed in transfected cells; host or cells: HEK293 cells, transiently transfected; membranes
Test: human V1a receptor binding studies (3H-Vasopressin SPA, membranes of transfected HEK293 cells)
Settings: 3H-Vasopressin displacement, HEK293 cell membranes, SPA beads, 1 h at room temperature, Ki by Cheng-Prussoff from IC50, read-out: pKi (hV1a) (converted)
Procedure: The human V1a receptor was cloned by RT-PCR from total human liver RNA. The coding sequence was subcloned in an expression vector after sequencing to confirm the identity of the amplified sequence. […] Cell membranes were prepared from HEK293-cells transiently transfected with the expression vector and grown in 20 liter fermenters with the following protocol.
50 g of cells are resuspended in 30 ml freshly prepared ice cold Lysis buffer (50 mM HEPES, 1 mM EDTA, 10 mM magnesium dichloride adjusted to pH=7.4+ complete cocktail of protease inhibitor (Roche Diagnostics)). Homogenized with Polytron for 1 min and sonicated on ice for 2×2 minutes at 80% intensity (Vibracell sonicator). The preparation is centrifuged 20 min at 500 g at 4° C., the pellet is discarded and the supernatant centrifuged 1 hour at 43,000 g at 4° C. (19,000 rpm). The pellet is resuspended in 12.5 ml Lysis buffer+12.5 ml sucrose 20% and homogenized using a Polytron for 1-2 min. The protein concentration is determined by the Bradford method and aliquots are stored at −80° C. until use. For binding studies 60 mg Yttrium silicate SPA beads (Amersham®) are mixed with an aliquot of membrane in binding buffer (50 mM Tris, 120 mM sodium chloride, 5 mM potassium chloride, 2 mM calcium dichloride, 10 mM magnesium dichloride) for 15 minutes with mixing. 50 μl of bead/membrane mixture is then added to each well of a 96 well plate, followed by 50 μl of 4 nM 3H-Vasopressin (American Radiolabeled Chemicals). For total binding measurement 100 μl of binding buffer are added to the respective wells, for non-specific binding 100 μl of 8.4 mM cold vasopressin and for compound testing 100 μl of a serial dilution of each compound in 2% dimethyl sulfoxide. The plate is incubated 1 h at room temperature, centrifuged 1 min at 1000 g and counted on a Packard Top-Count. Non-specific binding counts are subtracted from each well and data is normalized to the maximum specific binding set at 100%. To calculate an IC50 the curve is fitted using a non-linear regression model (XLfit) and the Ki is calculated using the Cheng-Prussoff equation.

T1 sequence (P37288 whole entry): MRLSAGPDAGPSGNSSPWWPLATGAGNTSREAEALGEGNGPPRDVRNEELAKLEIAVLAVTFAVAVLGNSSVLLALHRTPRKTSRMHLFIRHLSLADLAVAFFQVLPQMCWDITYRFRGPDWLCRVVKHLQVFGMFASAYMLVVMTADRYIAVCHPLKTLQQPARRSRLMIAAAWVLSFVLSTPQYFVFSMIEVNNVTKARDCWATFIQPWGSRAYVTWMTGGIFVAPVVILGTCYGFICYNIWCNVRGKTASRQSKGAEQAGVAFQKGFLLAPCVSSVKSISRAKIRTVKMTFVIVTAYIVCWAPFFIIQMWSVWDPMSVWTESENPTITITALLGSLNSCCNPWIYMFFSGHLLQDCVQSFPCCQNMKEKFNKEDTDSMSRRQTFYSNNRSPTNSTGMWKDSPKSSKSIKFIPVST

| SMILES | Ki |
| --- | --- |
| Cc1nc(C2=CCC(c3nnc4n3-c3ccc(Cl)cc3CNC4)CC2)cs1 (racemic) [Example 35, (RS)-8-Chloro-1-[4-(2-methyl-thiazol-4-yl)-cyclohex-3-enyl]-5,6-dihydro-4H-2,3,5,10b-tetraaza-benzo[e]azulene] | 170 nM |
| Cc1nc(C2=CCC(c3nnc4n3-c3ccc(Cl)cc3CN(C)C4)CC2)cs1 (racemic) [Example 36, (RS)-8-Chloro-5-methyl-1-[4-(2-methyl-thiazol-4-yl)-cyclohex-3-enyl]-5,6-dihydro-4H-2,3,5,10b-tetraaza-benzo[e]azulene] | 13.5 nM |
| CN1Cc2cc(Cl)ccc2-n2c(nnc2C2CC=C(c3ccccn3)CC2)C1 (single isomer, unassigned; (+)) [Example 24, (+)-8-Chloro-5-methyl-1-(-4-pyridin-2-yl-cyclohex-3-enyl)-5,6-dihydro-4H-2,3,5,10b-tetraaza-benzo[e]azulene] | 2.88 nM |
| CC(C)(C)OC(=O)N1Cc2cc(Cl)ccc2-n2c(nnc2C2CC=C(c3ncccc3F)CC2)C1 (single isomer, unassigned; (+)) [Example 29, (+)-8-Chloro-1-[-4-(3-fluoro-pyridin-2-yl)-cyclohex-3-enyl]-4H,6H-2,3,5,10b-tetraaza-benzo[e]azulene-5-carboxylic acid tert-butyl ester] | 0.794 nM |
| Fc1cccnc1C1=CCC(c2nnc3n2-c2ccc(Cl)cc2CNC3)CC1 (single isomer, unassigned; (+)) [Example 32, (+)-8-Chloro-1-[-4-(3-fluoro-pyridin-2-yl)-cyclohex-3-enyl]-5,6-dihydro-4H-2,3,5,10b-tetraaza-benzo[e]azulene] | 38.9 nM |
| CN1Cc2cc(Cl)ccc2-n2c(nnc2C2CC=C(c3ncccc3F)CC2)C1 (single isomer, unassigned; (+)) [Example 33, (+)-8-Chloro-1-[-4-(3-fluoro-pyridin-2-yl)-cyclohex-3-enyl]-5-methyl-5,6-dihydro-4H-2,3,5,10b-tetraaza-benzo[e]azulene] | 5.13 nM |
| CN1Cc2cc(Cl)ccc2-n2c(nnc2C2CC=C(c3ccccn3)CC2)C1 (single isomer, unassigned; (-)) [Example 23, (−)-8-Chloro-5-methyl-1-(-4-pyridin-2-yl-cyclohex-3-enyl)-5,6-dihydro-4H-2,3,5,10b-tetraaza-benzo[e]azulene] | 7.59 nM |
| CC(C)(C)OC(=O)N1Cc2cc(Cl)ccc2-n2c(nnc2C2CC=C(c3ncccc3F)CC2)C1 (single isomer, unassigned; (-)) [Example 28, (−)-8-Chloro-1-[-4-(3-fluoro-pyridin-2-yl)-cyclohex-3-enyl]-4H,6H-2,3,5,10b-tetraaza-benzo[e]azulene-5-carboxylic acid tert-butyl ester] | 1.91 nM |
| Fc1cccnc1C1=CCC(c2nnc3n2-c2ccc(Cl)cc2CNC3)CC1 (single isomer, unassigned; (-)) [Example 30, (−)-8-Chloro-1-[-4-(3-fluoro-pyridin-2-yl)-cyclohex-3-enyl]-5,6-dihydro-4H-2,3,5,10b-tetraaza-benzo[e]azulene] | 42.7 nM |
| CN1Cc2cc(Cl)ccc2-n2c(nnc2C2CC=C(c3ncccc3F)CC2)C1 (single isomer, unassigned; (-)) [Example 31, (−)-8-Chloro-1-[-4-(3-fluoro-pyridin-2-yl)-cyclohex-3-enyl]-5-methyl-5,6-dihydro-4H-2,3,5,10b-tetraaza-benzo[e]azulene] | 8.13 nM |
